For 17 molecules, IC50 results are on record in ChEMBL document CHEMBL1136428, “Structure-activity relationships of novel anti-malarial agents. Part 6: N-(4-arylpropionylamino-3-benzoylphenyl)-[5-(4-nitrophenyl)-2-furyl]acrylic acid amides” (Bioorg Med Chem Lett, 2003).

For this assay, the system named is Plasmodium falciparum. The experiment in a line: Anti-malarial activity against Plasmodium falciparum Dd2. It is filed as functional, organism-based.
The term IC50 denotes the concentration that inhibits the measured activity by half. Low values mean inhibition by little substance, high ones a need for much substance. In turn, `NC(Cc1ccc(C(F)(F)F)cc1)C(=O)Nc1ccc(NC(=O)/C=C/c2ccc(-c3ccc([N+](=O)[O-])cc3)o2)cc1C(=O)c1ccccc1` (configuration not stated) displayed an IC50 of 710 nM.
For `CC(C)(C)OC(=O)N[C@@H](Cc1ccccc1)C(=O)Nc1ccc(NC(=O)/C=C/c2ccc(-c3ccc([N+](=O)[O-])cc3)o2)cc1C(=O)c1ccccc1`, the midpoint of inhibition, the IC50, lay at 420 nM.
For `O=C(/C=C/c1ccc(-c2ccc([N+](=O)[O-])cc2)o1)Nc1ccc(NC(=O)CCc2cccc(C(F)(F)F)c2)c(C(=O)c2ccccc2)c1`, it took 630 nM to reach half-maximal inhibition (IC50).
Next, `O=C(/C=C/c1ccc(-c2ccc([N+](=O)[O-])cc2)o1)Nc1ccc(NC(=O)CCc2ccc(Cl)cc2)c(C(=O)c2ccccc2)c1`: 130 nM; `N[C@H](Cc1ccccc1)C(=O)Nc1ccc(NC(=O)/C=C/c2ccc(-c3ccc([N+](=O)[O-])cc3)o2)cc1C(=O)c1ccccc1`: 1200 nM; `N[C@@H](Cc1ccccc1)C(=O)Nc1ccc(NC(=O)/C=C/c2ccc(-c3ccc([N+](=O)[O-])cc3)o2)cc1C(=O)c1ccccc1`: 580 nM.
Molecule `COc1ccc(CCC(=O)Nc2ccc(NC(=O)/C=C/c3ccc(-c4ccc([N+](=O)[O-])cc4)o3)cc2C(=O)c2ccccc2)cc1` returned an IC50 of 1300 nM.
On to `Cc1ccc(CCC(=O)Nc2ccc(NC(=O)/C=C/c3ccc(-c4ccc([N+](=O)[O-])cc4)o3)cc2C(=O)c2ccccc2)cc1`, for which the IC50 turned out to be 440 nM.
`O=C(/C=C/c1ccc(-c2ccc([N+](=O)[O-])cc2)o1)Nc1ccc(NC(=O)CCc2ccccc2)c(C(=O)c2ccccc2)c1`: the half-maximal inhibitory concentration (IC50) came to 310 nM.
For `CC(C)(C)OC(=O)NC(Cc1ccc(C(F)(F)F)cc1)C(=O)Nc1ccc(NC(=O)/C=C/c2ccc(-c3ccc([N+](=O)[O-])cc3)o2)cc1C(=O)c1ccccc1` (configuration not stated), the 50% inhibitory concentration (IC50) is 3200 nM.
The figure for `CC(C)(C)OC(=O)N[C@H](Cc1ccccc1)C(=O)Nc1ccc(NC(=O)/C=C/c2ccc(-c3ccc([N+](=O)[O-])cc3)o2)cc1C(=O)c1ccccc1` is 900 nM; for `O=C(/C=C/c1ccc(-c2ccc([N+](=O)[O-])cc2)o1)Nc1ccc(NC(=O)CCc2ccc([N+](=O)[O-])cc2)c(C(=O)c2ccccc2)c1` it is 1400 nM; for `O=C(/C=C/c1ccc(-c2ccc([N+](=O)[O-])cc2)o1)Nc1ccc(NC(=O)CCc2ccccc2C(F)(F)F)c(C(=O)c2ccccc2)c1` it is 1100 nM.
For `O=C(/C=C/c1ccc(-c2ccc([N+](=O)[O-])cc2)o1)Nc1ccc(NC(=O)CCc2ccc(C(F)(F)F)cc2)c(C(=O)c2ccccc2)c1`, the IC50 stood at 61 nM. This IC50 lies about 18-fold lower than the previous one.
The figure for `O=C(/C=C/c1ccc(-c2ccc([N+](=O)[O-])cc2)o1)Nc1ccc(NC(=O)CCc2ccc(Br)cc2)c(C(=O)c2ccccc2)c1` is 170 nM; for `O=C(/C=C/c1ccc(-c2ccc([N+](=O)[O-])cc2)o1)Nc1ccc(NC(=O)CCc2ccc(F)cc2)c(C(=O)c2ccccc2)c1` it is 440 nM.
Next, `O=C(/C=C/c1ccc(-c2ccc([N+](=O)[O-])cc2)o1)Nc1ccc(NC(=O)CCc2ccc(O)cc2)c(C(=O)c2ccccc2)c1`: 3300 nM.
